# Measurements taken from paper PMC8224630, “Cytotoxicity and Nitric Oxide Production Inhibitory Activities of Compounds Isolated from the Plant Pathogenic Fungus Curvularia sp” (Journal of Fungi, 2021).
# Like-named read-outs stand apart in the source and are kept apart here.
# Legend:
# leukemic K562 cells = assay: Cytotoxicity assay against leukemic K562 cells, MTT; conditions: Homo sapiens, K562, 24 h, read-out: IC50 cytotoxicity K562 (Leukemic Cells)
# Procedure: (§1) Lung cancer A549 and colorectal cancer SW480 cells were maintained with Dulbecco’s modified Eagle’s medium (DMEM) containing 10% fetal bovine serum (FBS) and 1% penicillin/streptomycin. Leukemic K562 cells were cultured in RPMI-1640 supplemented with 10% fetal bovine serum (FBS) and 1% penicillin/streptomycin. All cells were cultured in 96-well plates at 37 °C in 5% CO2, followed by treatment with the sample for 24 h. After the incubation period, 0.5 mg/mL MTT was added to the cells and left for 4 h. The formazan was dissolved in DMSO and measured at 570 nm using Biochrom EZ Read 400 ELISA microplate reader (Biochrom Ltd., Cambridge, UK).
# [1] = as above; conditions: human, K562 leukemic cells
# Procedure: as §1
# [2] = test system: colorectal cancer SW480 cells; assay: Cytotoxicity assay against colorectal cancer SW480 cells, MTT; conditions: Homo sapiens, SW480, 24 h, read-out: IC50 cytotoxicity SW480 (Colorectal Cancer)
# Procedure: as §1
# [3] = as above; conditions: human, SW480 colorectal cancer cells
# Procedure: as §1
# [4] = Cytotoxicity assay in mammalian cells (RAW 264.7), MTT; conditions: mouse, RAW 264.7 cells
# Procedure: (§2) Cell viability was measured by the MTT assay. RAW 264.7 cells were seeded at 4 × 10^4 cells/well in 96-well plates and incubated at 37 °C and 5% CO2 overnight. Cells were treated with different concentrations of tea extracts, including 3.125, 6.25, 12.5, 25, 50, and 100 µg/mL, for 24 h. After 24 h, cells were washed with PBS and incubated with 0.5 mM MTT reagent for 4 h. The detection of formazan at 570 nm was performed with a Biochrom EZ Read 400 ELISA microplate reader (Biochrom Ltd., Cambridge, UK). The data were calculated as IC50 values with GraphPad Prism 6.0 software.
# lung cancer A549 cells = assay: Cytotoxicity assay against lung cancer A549 cells, MTT; conditions: Homo sapiens, A549, 24 h, read-out: IC50 cytotoxicity A549 (Lung Cancer)
# Procedure: as §1
# [5] = as above; conditions: human, A549 lung cancer cells
# Procedure: as §1
# [6] = test system: nitric oxide (NO) production in RAW 264.7 cells; assay: Nitric oxide (NO) production inhibitory assay, LPS-stimulated RAW 264.7 cells, Griess reagent; format: cell-based; conditions: for inhibition at 100 µg/mL: read-out: % of NO Inhibition at 100 µg/mL; for IC50: read-out: NO Production Inhibition IC50
# Procedure: This assay was performed as previously described. […] After 24 h, 100 µL of Griess reagent was added to the samples for 10 min. […] Additionally, the data are presented as the IC50, which was calculated with GraphPad Prism 6.0 software.
# [7] = test system: lung cancer (A549) cell line; parameters: method as in doi:10.1007/s10600-015-1259-y; conditions: 30 µg/mL; cited from earlier work
# in vitro = conditions: mouse
# Procedure: as §2
# [8] = Mus musculus, RAW264.7, 100 µg/mL, LPS 1 µg/mL, 24 h
# [9] = Mus musculus, RAW264.7, LPS 1 µg/mL, 24 h
compound,measurement,setting,value
"CC[C@H](C)[C@@H](OC(C)=O)[C@@H](C)C1=CC(=O)C2=C(O[C@]3(C)CC[C@H]4O[C@@H](C(C)(C)O)CC[C@]4(C)[C@H]3[C@@H]2O)C1=O [Compound 2, cochlioquinone A]",IC50,leukemic K562 cells,17.6 µM
same,"viability at 24 h, 6.25 µg/mL",[1],71 ± 1.69%
same,"viability at 24 h, 12.5 µg/mL",[1],38.4 ± 3.18%
same,"viability at 24 h, 25 µg/mL",[1],21 ± 2.61%
same,"viability at 24 h, 50 µg/mL",[1],13.3 ± 0.89%
same,"viability at 24 h, 100 µg/mL",[1],12.5 ± 1.24%
same,IC50,[2],< 11.7 µM
same,"viability at 24 h, 6.25 µg/mL",[3],30.8 ± 0.4%
same,"viability at 24 h, 12.5 µg/mL",[3],23.4 ± 0.25%
same,"viability at 24 h, 25 µg/mL",[3],17.6 ± 0.7%
same,"viability at 24 h, 50 µg/mL",[3],15.6 ± 0.77%
same,"viability at 24 h, 100 µg/mL",[3],14.9 ± 0.57%
same,IC50 at 24 h,[4],< 11.7 µM
same,"viability at 24 h, 6.25 µg/mL",[4],28.5 ± 1.98%
same,"viability at 24 h, 12.5 µg/mL",[4],16.6 ± 0.52%
same,"viability at 24 h, 25 µg/mL",[4],15 ± 0.29%
same,"viability at 24 h, 50 µg/mL",[4],11.67 ± 0.08%
same,"viability at 24 h, 100 µg/mL",[4],10.8 ± 0.09%
same,IC50,lung cancer A549 cells,14.3 µM
same,"viability at 24 h, 6.25 µg/mL",[5],73.1 ± 1.09%
same,"viability at 24 h, 12.5 µg/mL",[5],23.1 ± 1.84%
same,"viability at 24 h, 25 µg/mL",[5],17.9 ± 1.93%
same,"viability at 24 h, 50 µg/mL",[5],14.8 ± 2.54%
same,"viability at 24 h, 100 µg/mL",[5],13.4 ± 0.48%
"C/C1=C\C[C@]2(C)C(=O)C(O)=C([C@H](C)CO)[C@H]2C/C=C(\C)[C@@H](O)CC/C(C)=C/CC1 [Compound 6, terpestacin]","viability at 24 h, 100 µg/mL",[1],99.2 ± 3.84%
same,NO Production Inhibition IC50,"[6]; LPS 1 µg/mL, 24 h",inactive
same,inhibition at 100 µg/mL,[6]; [8],41 ± 3.36%
same,"viability at 24 h, 100 µg/mL",[3],97.7 ± 1.04%
same,"viability at 24 h, 100 µg/mL",[4],99.3 ± 2.51%
same,"viability at 24 h, 100 µg/mL",[5],92 ± 3.75%
"CCCC1C2=C(CCC3C(=O)OC(=O)C3=CC1CC)C(=O)OC2=O (stereo not shown) [Compound 5, curvulariahawadride]",IC50,"[6]; LPS 1 µg/mL, 24 h",12.8 µM
same,IC50,"[6]; Mus musculus, RAW264.7, 24 h, LPS 1 µg/mL, 24 h",12.9 µM
same,inhibition at 100 µg/mL,[6]; [8],74 ± 1.14%
"CC[C@H](C)[C@@H](OC(C)=O)[C@@H](C)C1=CC(=O)C2=C(O[C@]3(C)CC[C@H]4O[C@@H](C(C)(C)O)CC[C@]4(C)C3=C2)C1=O [Compound 4, anhydrocochlioquinone A]",IC50,leukemic K562 cells,< 12.1 µM
same,"viability at 24 h, 6.25 µg/mL",[1],19.5 ± 2.62%
same,"viability at 24 h, 12.5 µg/mL",[1],14 ± 2.31%
same,"viability at 24 h, 25 µg/mL",[1],12.9 ± 0.34%
same,"viability at 24 h, 50 µg/mL",[1],11.3 ± 0.4%
same,"viability at 24 h, 100 µg/mL",[1],10.6 ± 0.2%
same,IC50,[2],< 12.1 µM
same,"viability at 24 h, 6.25 µg/mL",[3],17.3 ± 0.33%
same,"viability at 24 h, 12.5 µg/mL",[3],15.6 ± 0.39%
same,"viability at 24 h, 25 µg/mL",[3],15.4 ± 0.42%
same,"viability at 24 h, 50 µg/mL",[3],14.7 ± 0.24%
same,"viability at 24 h, 100 µg/mL",[3],14.4 ± 0.4%
same,IC50 at 24 h,[4],< 12.1 µM
same,"viability at 24 h, 6.25 µg/mL",[4],14.3 ± 0.73%
same,"viability at 24 h, 12.5 µg/mL",[4],12.4 ± 0.47%
same,"viability at 24 h, 25 µg/mL",[4],12.1 ± 0.42%
same,"viability at 24 h, 50 µg/mL",[4],12.8 ± 0.7%
same,"viability at 24 h, 100 µg/mL",[4],11.1 ± 0.43%
same,IC50,lung cancer A549 cells,< 12.1 µM
same,"viability at 24 h, 6.25 µg/mL",[5],12.4 ± 0.17%
same,"viability at 24 h, 12.5 µg/mL",[5],11.6 ± 1.05%
same,"viability at 24 h, 25 µg/mL",[5],10.2 ± 0.17%
same,"viability at 24 h, 50 µg/mL",[5],9.35 ± 0.52%
same,"viability at 24 h, 100 µg/mL",[5],8.4 ± 0.58%
same,"inhibition ratio, cytotoxicity against A549",[7],41%
"CC[C@H](C)[C@@H](OC(C)=O)[C@@H](C)C1=C(N)C(=O)C2=C(O[C@]3(C)CC[C@H]4O[C@@H](C(C)(C)O)CC[C@]4(C)[C@H]3[C@@H]2O)C1=O [Compound 1, cochlioquinone N]","viability at 24 h, 100 µg/mL",[1],81.1 ± 3.8%
same,inhibition at 100 µg/mL,[6]; [8],51.3 ± 1.65%
same,IC50,[6]; [9],53.7 µM
same,melting point,,185 to 187 °C
same,"viability at 24 h, 100 µg/mL",[3],82.6 ± 1.68%
same,"viability at 24 h, 100 µg/mL",[4],97.14 ± 0.81%
same,"viability at 24 h, 100 µg/mL",[5],88.5 ± 1.19%
"C/C=C(\C)[C@@H](OC(C)=O)[C@@H](C)C1=CC(=O)C2=C(O[C@]3(C)CC[C@H]4O[C@@H](C(C)(C)O)CC[C@]4(C)[C@H]3[C@@H]2O)C1=O [Compound 3, stemphone]",inhibition at 100 µg/mL,"[6]; Mus musculus, RAW264.7, 24 h",73.41 ± 0.44%
same,IC50,"[6]; Mus musculus, RAW264.7, 24 h",32.8 µM
same,"viability at 24 h, 100 µg/mL",in vitro,71.4 ± 2.67%
"COc1ccc2c(c1)c(CC(=O)O)c(C)n2C(=O)c1ccc(Cl)cc1 [Indomethacin, reference compound]",inhibition at 100 µg/mL,[6]; [8],77.45 ± 0.28%
same,IC50,[6]; [9],73.4 µM
